# How the values were obtained:
# CD1d = target: T1, CD1d (Mus musculus, UniProt P11609); test: Buried surface area between glycolipid and CD1d in crystal structures; details: mCD1d-glycolipid-mTCR crystal structures
# T1 construct: made in house
# T1 sequence (P11609 19-297 limits assumed): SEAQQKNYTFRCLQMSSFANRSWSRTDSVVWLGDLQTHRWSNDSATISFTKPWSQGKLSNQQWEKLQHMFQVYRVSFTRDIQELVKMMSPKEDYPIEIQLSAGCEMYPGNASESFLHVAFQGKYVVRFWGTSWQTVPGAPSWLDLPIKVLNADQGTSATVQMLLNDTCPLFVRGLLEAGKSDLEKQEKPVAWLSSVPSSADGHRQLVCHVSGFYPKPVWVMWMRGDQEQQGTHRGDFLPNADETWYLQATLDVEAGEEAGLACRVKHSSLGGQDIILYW
# Experimental: First, the ternary mCD1d-lipid-mTCR complexes using the glycolipids 4ClPhC-α-GalCer (3a) and PyrC-α-GalCer (3c) were prepared as described previously for NU-α-GalCer, and purified by size exclusion chromatography (SEC) using Superdex S200 10/300 GL (GE Healthcare). Both mCD1d-4ClPhC-α-GalCer-mTCR and mCD1d-PyrC-α-GalCer-mTCR complexes were concentrated to 3.5 mg/ml in SEC buffer (50 mM Hepes, pH 7.5, 150 mM NaCl). Crystals were grown at 22.3° C. by sitting drop vapor diffusion while by mixing 0.5 μl mCD1d-4ClPhC-α-GalCer-mTCR and 0.5 μl precipitate (20% PEG 4000, 0.2 M sodium thiocyanate) or by mixing 1 μl mCD1d-PyrC-α-GalCer-mTCR and […] precipitate (20% PEG 4000, 0.2 M di-ammonium hydrogen citrate), respectively.
# Crystals were flash-cooled at 100° K in a mother liquor containing 30% glycerol. […]
# The asymmetric unit contains one mCD1d-glycolipid-TCR molecule with estimated solvent content of 57.3% based on a Matthews' coefficient (Vm) of 2.88 A^3/Da for 4ClPhC-α-GalCer and 56.9% (VM) of 2.86 A^3/Da for PyrC-α-GalCer. Crystal structures were determined by molecular replacement using MOLREP as part of the CCP4 suite. […]
# solid tumours = details: Phase I study; cited from earlier work
# [1] = target: T2, TCR / mCD1d-glycolipid complex (Mus musculus, UniProt P11609); test: Surface plasmon resonance: TCR binding to mCD1d-glycolipid complexes
# T2 sequence (P11609 19-297): T1 sequence (P11609 19-297 limits assumed)
# T2 sequence (P01887 21-119 partner): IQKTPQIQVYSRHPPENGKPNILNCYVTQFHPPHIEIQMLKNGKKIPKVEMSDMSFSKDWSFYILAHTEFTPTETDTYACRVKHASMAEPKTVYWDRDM
# Experimental: SPR studies were conducted using a Biacore 3000 (Biacore). Glycolipids were dissolved at 1 mg/ml in DMSO and before loading were diluted to 0.25 mg/ml with vehicle solution (50 mM Tris-HCl pH 7.0, 4.8 mg/ml sucrose, 0.5 mg/ml deoxycholate and 0.022% Tween-20), heated for 20 minutes at 80° C. After cooling 1 μg of each lipid was incubated with 10 μg enzymatically biotinylated mCD1d overnight at room temperature. In one embodiment, 400-600 response units (RU) of mCD1d-glycolipid complexes were immobilized onto a CA capture chip (Biacore). A reference surface was generated in another flow channel with unloaded mCD1d immobilized at RU of 500. During the association phase, a series of increasing concentrations of TCR (in 10 mM HEPES, 150 mM NaCl, 3.0 mM EDTA, pH 7.4) in duplicate were injected for 80 seconds and the dissociation phase (running buffer only) was monitored over 45 minutes. Experiments were carried out at 25° C. with a flow rate of 30 μl/min and performed at least two to three times, each time with a different batch of TCR preparation. Kinetic parameters were calculated after subtracting the response to mCD1d molecules in the reference channel, using a simple Langmuir 1:1 model in the BIA evaluation software version 4.1. One representative sensorgram for each lipid is shown. […]
smiles,measurement,setting,value
"CCCCCCCCCCCCCCCCCCCCCCCCCC(=O)N[C@@H](CO[C@H]1O[C@H](CO)[C@H](O)[C@H](O)[C@H]1O)[C@H](O)[C@H](O)CCCCCCCCCCCCCC [α-GalCer, α-galactosyl ceramide]",buried surface area between glycolipid and CD1d,CD1d,"1,027 Å^2"
same,treatment of solid tumours,solid tumours,ineffective
same,Kd,[1],11 nM

# — US9321796B2, “Galactopyranosyl derivatives useful as medicaments” (Universiteit Gent, priority 2012, dated 2016)
